US20090118253A1, “COMPOSITIONS AND METHODS FOR TREATING DYSFUNCTIONAL UTERINE BLEEDING” (REPROS THERAPEUTICS INC., priority 2007, published 2009)

Experiments:
[1] = test system: rabbit progesterone receptor (rbPR) and glucocorticoid receptor (rbGR); assay: Receptor-binding assays, ratio of relative binding affinities rbPR/rbGR; conditions: ratio of relative binding affinities (RBA = EC50 of standard/EC50 of test compound x 100) for rbPR and rbGR
Experimental: Certain antiprogestins were tested in receptor-binding assays for their ability to bind rabbit progesterone receptor (rbPR) and glucocorticoid receptor (rbGR). Briefly, cytosol containing PR or GR were prepared in TEGMD buffer (10 mM Tris, pH 7.2, 1.5 mM EDTA, 0.2 mM sodium molybdate, 10% glycerol, 1 mM DTT) from uterus or thymus, respectively, of estradiol-primed immature rabbits. For PR binding, the cytosol was incubated with 6 nM 1,2-[^3H]progesterone (50.0 Ci/mmole) and competitors were added at concentrations from 2 to 100 nM. For binding to GR, the cytosol was incubated with 6 nM 6,7-[^3H]-dexamethasone (40 Ci/mmol) and test compounds were added at concentrations from 20 to 100 nM. After overnight incubation at 4 C, bound and unbound [^3H] steroids were separated by addition of dextran-coated charcoal and centrifugation at 2100×g for 15 min at 4 C. Supernatants containing the [3H]-steroid receptor complexes were decanted into vials containing 4 ml Optifluor (Packard Instrument Co.), vortexed, equilibrated in a liquid scintillation counter for 30 minutes and then counted for 2 minutes. The EC50 (Effective Concentration) for each standard curve and each of the compound curves was determined by entering the counting data into a four parameter sigmoidal computer program (RiaSmart® Immunoassay Data Reduction Program, Packard Instrument Co., Meriden, Conn.). Relative binding affinity (RBA) for each compound was calculated using the following equation: EC50 of standard/EC50 of test compound×100. The standards for the PR and GR assays were unlabeled progesterone and dexamethasone, respectively. The results of these experiments are summarized in Table 1, as a ratio of the relative binding affinities of each compound for the rbPR and rbGR receptors (rbPR/rbGR).

[2] = test system: progesterone-induced endometrial glandular proliferation in rabbit uterus; assay: anti-McGinty and anti-Clauberg assays in the rabbit uterus; assay type: in vivo; conditions: average of anti-McGinty and anti-Clauberg results relative to CDB-2914 (=1.00)
Text: Also given in Table 1 are the relative biological activities of the same compounds in the rabbit uterus by the anti-McGinty and anti-Clauberg assays. Compound CDB-2914 (listed at the end of the Table) was used as the control or reference compound (rabbit Biological Activity=1.00) for these experiments because results of experiments using CDB-2914 have been published before (Hild-Petito et al., 1996; Passaro et al., 1997; Reel et al., 1998; Lamer et al., 2000). For the anti-McGinty test, immature female rabbits received a subcutaneous injection of 5 μg estradiol in 10% ethanol/sesame oil daily for 6 consecutive days. On day 7, animals underwent sterile abdominal surgery to ligate a 3-4 cm segment of both uterine horns. The test compound in appropriate solvent was injected intraluminally into the ligated segment of one uterine horn and vehicle alone into the other. A stimulating dose of progesterone (267 μg/day) was administered subcutaneously to each rabbit daily for the next three days to induce endometrial proliferation. All animals were sacrificed at day 10 for removal of the uterus where a segment central to the ligatures was removed and fixed in 10% neutral buffered formalin and submitted for histological processing. Five micron sections stained with hematoxylin and cosin were evaluated microscopically for the degree of endometrial glandular proliferation. The percent inhibition of endometrial proliferation for each rabbit was calculated and the mean of the group of five animals recorded. For the Anti-Clauberg test, immature female rabbits received a subcutaneous injection of 5 μg estradiol in 10% ethanol/sesame oil daily for 6 consecutive days. On day 7, animals received progesterone by subcutaneous injection (160 μg/day) and the experimental compound in appropriate vehicle orally or subcutaneously for five consecutive days. One group of rabbits received progesterone only. Twenty-four hours after the last dose, all animals were sacrificed for removal of the uterus which was cleaned of all fat and connective tissue, weighed to the nearest 0.2 mg and placed in 10% neutral buffered formalin for subsequent histological processing. Five micron sections stained with hematoxylin and eosin were evaluated microscopically for the degree of endometrial glandular proliferation. The percent inhibition of endometrial proliferation at each dose level of the test compound was derived by comparison with progesterone-stimulated animals alone. The data presented in Table 1 (rabbit Biol. Act.) reflects the average of the results obtained for each compound by the anti-McGinty and anti-Clauberg assays relative to CDB-2914.

| Molecule | rbPR/rbGR [1] | rabbit Biol. Act. [2] |
| --- | --- | --- |
| CCOCC(=O)C1(OC(C)=O)CCC2C3CCC4=CC(=NO)CCC4=C3C(c3ccc(N(C)C)cc3)C[C@@]21C (stereo partly drawn) [CDB-4226, 3-hydroxyamino-21-ethyloxy-17α-acetoxy-11β-(4 N,N-dimethylaminophenyl)-19-norpregna-4,9-diene-3,20-dione] | 1.51 | 0.54 |
| CC(=O)O[C@]1(C(=O)CF)CCC2C3CCC4=CC(=O)CCC4=C3C(c3ccc(N(C)C)cc3)C[C@@]21C (stereo partly drawn) [CDB-4058, 21-flourine-17α-acetoxy-11β-(4 N,N-dimethylaminophenyl)-19-norpregna-4,9-diene-3,20-dione] | 1.08 | 0.90 |
| C=COCC(=O)[C@@]1(OC(C)=O)CCC2C3CCC4=CC(=O)CCC4=C3C(c3ccc(N(C)C)cc3)C[C@@]21C (stereo partly drawn) [CDB-4361, 21-vinyl ether-17α-acetoxy-11β-(4 N,N-dimethylaminophenyl)-19-norpregna-4,9-diene-3,20-dione] | 7.20 | 3.03 |
| CCC(=O)OCC(=O)[C@@]1(OC(C)=O)CCC2C3CCC4=CC(=O)CCC4=C3C(c3ccc(N(C)C)cc3)C[C@@]21C (stereo partly drawn) [CDB-4247, 21-propio[1]nyloxy-17α-acetoxy-1 1β-(4 N,N-dimethylaminophenyl)-19-norpregna-4,9-diene-3,20-dione] | 2.06 | 1.70 |
| 2 11-(Cyp*-hydroxy)-17α-acetoxy-11β-(4 N,N-dimethylaminophenyl)-19-norpregna-4,9-diene-3,20-dione [CDB-4125] | 1.19 | 1.55 |
| CC(=O)OCC(=O)C1(OC(C)=O)CCC2C3CCC4=CC(=NO)CCC4=C3C(c3ccc(N(C)C)cc3)C[C@@]21C (stereo partly drawn) [CDB-4206, 3-hydroxyamino-21-acetoxy-17α-acetoxy-11β-(4 N,N-dimethylaminophenyl)-19-norpregna-4,9-diene-3,20-dione] | 1.44 | 0.68 |
| CC(=O)O[C@]1(C(=O)CSC#N)CCC2C3CCC4=CC(=O)CCC4=C3C(c3ccc(N(C)C)cc3)C[C@@]21C (stereo partly drawn) [CDB-4352, 21-cyanothio-17α-acetoxy-11β-(4 N,N-dimethylaminophenyl)-19 norpregna-4,9-diene-3,20-dione] | 4.21 | 0.57 |
| CC(=O)O[C@]1(C(=O)CSC(C)=O)CCC2C3CCC4=C(C(=O)c5ccccc5)C(=O)CCC4=C3C(c3ccc(N(C)C)cc3)C[C@@]21C (stereo partly drawn) [CDB-4119, 4-benzoin-21-acetylthio-17α-acetoxy-11β-(4 N,N-dimethylaminophenyl)-19-norpregna-4,9-diene-3,20-dione] | 2.60 | 0.10 |
| CCOCC(=O)[C@@]1(OC(C)=O)CCC2C3CCC4=CC(=O)CCC4=C3C(c3ccc(N(C)C)cc3)C[C@@]21C (stereo partly drawn) [CDB-4167, 21-ethyloxy-17α-acetoxy-11β-(4 N,N-dimethylaminophenyl)-19-norpregna-4,9-diene-3,20-dione] | 1.69 | 1.50 |
| COCC(=O)[C@@]1(OC(C)=O)CCC2C3CCC4=C(C(=O)c5ccccc5)C(=O)CCC4=C3C(c3ccc(N(C)C)cc3)C[C@@]21C (stereo partly drawn) [CDB-4239, 4-benzoin-21-methoxy-17α-acetoxy-11β-(4 N,N-dimethylaminophenyl)-19-norpregna-4,9-diene-3,20-dione] | 14.80 | 0.60 |
| CC(=O)O[C@]1(C(=O)CO)CCC2C3CCC4=CC(=O)CCC4=C3C(c3ccc(N(C)C)cc3)C[C@@]21C (stereo partly drawn) [CDB-4152, 21-hydroxy-17α-acetoxy-11β-(4 N,N-dimethylaminophenyl)-19-norpregna-4,9-diene-3,20-dione] | 0.82 | 1.40 |
| 21-BMD-17α-acetoxy-11β-(4 N,N-dimethylaminophenyl)-19-norpregna-4,9-diene-3,20-dione [CDB-4111] | 1.30 | 0.36 |
| CC(=O)O[C@]1(C(=O)C[S+](C)[O-])CCC2C3CCC4=CC(=O)CCC4=C3C(c3ccc(N(C)C)cc3)C[C@@]21C (stereo partly drawn) [CDB-4101, 21-methoxythio-17α-acetoxy-11β-(4 N,N-dimethylaminophenyl)-19-norpregna-4,9-diene-3,20-dione] | 0.61 | 0.65 |
| COCC(=O)C1(OC(C)=O)CCC2C3CCC4=CC(=NO)CCC4=C3C(c3ccc(N(C)C)cc3)C[C@@]21C (stereo partly drawn) [CDB-4205, 3-hydroxyamino-2 1-methoxy-17α-acetoxy-11β-(4 N,N-dimethylaminophenyl)-19-norpregna-4,9-diene-3,20-dione] | 1.99 | 1.00 |
| CC(=O)O[C@]1(C2COC(C)(C)O2)CCC2C3CCC4=CC(=O)CCC4=C3C(c3ccc(N(C)C)cc3)C[C@@]21C (stereo partly drawn) [CDB-4110, 21-acetonide-17α-acetoxy-11β-(4 N,N-dimethylaminophenyl)-19-norpregna-4,9-diene-3,20-dione] | 0.70 | 0.10 |
| CC(=O)O[C@]1(C(=O)COC(=O)CN)CCC2C3CCC4=CC(=O)CCC4=C3C(c3ccc(N(C)C)cc3)C[C@@]21C (stereo partly drawn) [CDB-4306, 21-glycinate-17α-acetoxy-11β-(4 N,N-dimethylaminophenyl)-19-norpregna-4,9-diene-3,20-dione] | 5.90 | 0.95 |
| 21-methoxyacetyl-17α-acetoxy-11β-(4 N,N-dimethylaminophenyl)-19-norpregna-4,9-diene-3,20-dione [CDB-4362] | 4.74 | 1.25 |
| CSCC(=O)[C@@]1(OC(C)=O)CCC2C3CCC4=CC(=O)CCC4=C3C(c3ccc(N(C)C)cc3)C[C@@]21C (stereo partly drawn) [CDB-4223, 21-methylthio-17α-acetoxy-11β-(4 N,N-dimethylaminophenyl)-19-norpregna-4,9-diene-3,20-dione] | 1.17 | – |
| CCC(=O)[C@@]1(OC(C)=O)CCC2C3CCC4=CC(=O)CCC4=C3C(c3ccc(N(C)C)cc3)C[C@@]21C (stereo partly drawn) [CDB-4030, 21-methyl-17α-acetoxy-11β-(4 N,N-dimethylaminophenyl)-19-norpregna-4,9-diene-3,20-dione] | 0.96 | 0.30 |
| CC(=O)O[C@]1(C(=O)CBr)CCC2C3CCC4=CC(=O)CCC4=C3C(c3ccc(N(C)C)cc3)C[C@@]21C (stereo partly drawn) [CDB-4031, 21-bromine-17α-acetoxy-11β-(4 N,N-dimethylaminophenyl)-19-norpregna-4,9-diene-3,20-dione] | 0.69 | 0.70 |
